Measurements taken from PMC11855827, “High-Throughput Screening of Five Compound Libraries for Anthelmintic Activity and Toxicity Leads to the Discovery of Two Flavonoid Compounds” (International Journal of Molecular Sciences, 2025).
Like-named read-outs stand apart in the source and are kept apart here.

Columns and labels:
[1] = test system: C. elegans; assay: C. elegans motility dose-response (DR) assay; parameters: species or system Caenorhabditis elegans
[2] = test system: C. elegans; assay: microbe, parasite or virus in culture; conditions: Caenorhabditis elegans
[3] = test system: H. contortus susceptible strain; assay: Egg hatch inhibition (EHI), ovicidal effect; parameters: species or system Haemonchus contortus; conditions: Haemonchus contortus; for inhibition at 100 µM: susceptible strain, NE = Not Effective at 100 μM, control thiabendazole 0.1 µg/mL
[4] = test system: H. contortus susceptible strain; assay: Larval migration inhibition test (LMIT); parameters: species or system Haemonchus contortus; conditions: L3, 100 μM, NE = Not Effective at 100 μM, control ivermectin 8.75 µg/mL; for inhibition at 100 µM: Haemonchus contortus, 24 h
Source text: (§1) Eggs and third instar larvae (L3) of H. contortus from a field strain and a resistant strain of T. circumcincta were used in the current trials. These parasitic forms were obtained from fresh feces of Merino and Churra sheep experimentally infected at the experimental farm of the Instituto de Ganadería de Montaña (IGM, CSIC, Gruyeros, León, Spain) and purified according to previously described methods. Briefly, eggs were taken from fresh feces, washed, centrifuged and floated with a saturated sodium chloride solution, then concentrated, counted and used in the assays. L3 were obtained by culturing feces at 25 °C for 13 d. L3 larvae were […] in 0.5% sodium hypochlorite solution for 10 min at room temperature and washed to avoid excess salt. After washing, they were concentrated and counted for use.
(§2) The viability of H. contortus larvae was assessed by the larval migration inhibition test (LMIT) according to previously described methods. Briefly, 700 µL aliquots containing 500–600 L3 were prepared for each compound. […] After a 24 h incubation at 28 °C, the compound was removed by three washes, leaving a final volume of 1400 µL. After the washes, three 400 µL aliquots were taken from each tube and transferred to a 96-well plate with a MultiScreen mesh filter. The plates were incubated for a further 24 h at 28 °C to allow the motile L3 to pass through the 20 µm mesh for counting. Then, the number of larvae present in each well was counted to determine percentage of larval migration for each compound: % Larval migration=number of larvae migrating in compound wells/number of larvae migrating in negative control×100
(§3) For the larvae, ivermectin at 8.75 µg/mL and DMSO 0.5% (v/v) were used as controls and at least 12 replicates were performed. […] EC50 were determined by plotting the percentage of viability of the L1 against the concentration of each compound, using the nonlinear fit analysis provided by the SigmaPlot® 10.1.

[5] = test system: T. circumcincta resistant strain; assay: Egg hatch inhibition (EHI), ovicidal effect; parameters: species or system Teladorsagia circumcincta; conditions: Teladorsagia circumcincta
[6] = test system: T. circumcincta resistant strain; assay: Larval migration inhibition test (LMIT); parameters: species or system Teladorsagia circumcincta; conditions: resistant strain, L3, 100 μM; NE = Not Effective at 100 μM; control ivermectin 8.75 µg/mL
Source text: as §1, §2, §3

[7] = test system: C. elegans
[8] = test system: C. elegans; conditions: read-out: EC50 found in the literature; cited from earlier work
[9] = Caenorhabditis elegans, 24 h, read-out: EC50 (μM) at 24 h, C. elegans motility, DR assay, 24 h
[10] = 0 h, read-out: Inhibition (%) 110 μM (0 h), C. elegans L4 motility, 110 μM, 0 h, mean ± SD of four experiments
[11] = 24 h, read-out: Inhibition (%) 110 μM (24 h), C. elegans L4 motility, 110 μM, 24 h, mean ± SD of four experiments
[12] = 24 h, read-out: Percentage of motility inhibition 24 h, Table S2, C. elegans SS assay, 110 μM, 24 h, averages of 4 data points
[13] = Caenorhabditis elegans, read-out: EC50 (μM) at 24 h, C. elegans motility, DR assay
[14] = 0 h, read-out: Inhibition (%) 110 μM (0 h)
[15] = 24 h, read-out: Inhibition (%) 110 μM (24 h)
[16] = read-out: EC50 (μM) at 24 h, C. elegans motility, DR assay

| Compound | EC50 [1, 9] | inhibition at 110 µM [2, 10] | inhibition at 110 µM [2, 11] | inhibition at 100 µM [3] | inhibition at 100 µM [4] | other results |
| --- | --- | --- | --- | --- | --- | --- |
| O=[N+]([O-])c1ccc(O)c2ncccc12 [Nitroxoline, reference compound] | > 60 µM | 52 ± 32% | 88 ± 2% | – | – | – |
| CC1(C)CCC[C@]2(C)[C@@H](C=O)C(C=O)=CC[C@@H]12 [Polygodial] | 33.2 ± 6.4 µM | 0% | 93 ± 4% | 0% | 0% | – |
| Oc1ccc(/C=C/c2cc(O)cc(O)c2)cc1 [Resveratrol] | 27.7 ± 1.5 µM | 82 ± 8% | 7 ± 7% | 0% | 0% | – |
| NC(=O)c1ncn([C@@H]2O[C@H](CO)[C@@H](O)[C@H]2O)n1 [Ribavirin, reference compound] | > 60 µM | 91 ± 5% | 76 ± 11% | – | – | – |
| N=C(N/N=C/c1ccc(Cl)cc1)N/N=C/c1ccc(Cl)cc1 [Robenidine, reference compound] | 32.3 ± 2.8 µM | 93 ± 5% | 81 ± 20% | 59.7 ± 0.7% | 3.1 ± 6.9% | inhibition at 110 µM [2, 12]: 80% |
| CC[C@@H](C(=O)[C@@H](C)[C@@H](O)[C@H](C)[C@@H]1O[C@@H]([C@@H](CC)C(=O)O)CC[C@@H]1C)[C@H]1O[C@]2(C=C[C@@H](O)[C@]3(CC[C@@](C)([C@H]4CC[C@](O)(CC)[C@H](C)O4)O3)O2)[C@H](C)C[C@@H]1C [Salinomycin, reference compound] | – | – | – | 2.8 ± 5.1% | 0% | EC50 [1, 13]: 55.3 ± 1.4 µM; inhibition at 110 µM [2, 14]: 81 ± 9%; inhibition at 110 µM [2, 15]: 94 ± 1%; inhibition at 110 µM [2, 12]: 93% |
| Nc1ccc(S(=O)(=O)Nc2cnc3ccccc3n2)cc1 [Sulfaquinoxaline, reference compound] | > 60 µM | 87 ± 1% | 67 ± 6% | – | – | – |
| c1ccc2[nH]c(-c3cscn3)nc2c1 [Thiabendazole, reference compound] | – | – | – | 100% | – | EC50 ([3]; egg hatching, susceptible H. contortus, nine replicates, read-out: Ovicidal Effect EC50 (μM) H. c): 0.28 ± 0.01 µM; EC50 ([5]; egg hatching, resistant T. circumcincta, nine replicates, read-out: Ovicidal Effect EC50 (μM) T. c): 1.53 ± 0.06 µM; inhibition at 100 µM ([5]; resistant strain, 100 μM, NE = Not Effective at 100 μM, control thiabendazole 0.1 µg/mL): 100% |
| CC(C)[C@]12O[C@H]1[C@@H]1O[C@]13[C@]1(O[C@H]1C[C@H]1C4=C(CC[C@@]13C)C(=O)OC4)[C@@H]2O [Triptolide] | – | – | – | – | – | EC50 [1, 13]: > 60 µM; inhibition at 110 µM [2, 14]: 15%; inhibition at 110 µM [2, 15]: 72 ± 1%; inhibition at 110 µM [2, 12]: 71% |
| Ivermectin [reference compound] | – | – | – | – | – | EC50 [1, 16]: 2.18 µM; H. contortus LMIT (%) [4]: 100.0 ± 0.0%; T. circumcincta LMIT (%) [6]: 100.0 ± 0.0%; Inhibition (%) 110 μM (0 h) [7]: 98 ± 1%; Inhibition (%) 110 μM (24 h) [7]: 85 ± 14%; EC50 [8]: 0.19 µM |
| Spiramycin [reference compound] | – | – | – | – | – | EC50 [1, 16]: > 60 µM; Inhibition (%) 110 μM (0 h) ([7]; C. elegans L4 motility, 110 μM, 0 h, mean ± SD of four experiments): 43 ± 42%; Inhibition (%) 110 μM (24 h) ([7]; C. elegans L4 motility, 110 μM, 24 h, mean ± SD of four experiments): 81 ± 9%; Percentage of motility inhibition 0 h ([7]; Table S2, C. elegans SS assay, 110 μM, 0 h, averages of 4 data points): 42%; Percentage of motility inhibition 24 h ([7]; Table S2, C. elegans SS assay, 110 μM, 24 h, averages of 4 data points): 80% |
